Source: patent US12428406B2 (PMV Pharmaceuticals, Inc., priority 2019, dated 2025)

Biological target: T1, p53 Y220C (Homo sapiens, UniProt P04637, Y220C)
T1 construct: The recombinant protein was a truncation mutant containing only amino acids 94-312 of p53; made in house; host or cells: E. coli
Assay: In vitro DNA binding activity assay (HTRF / TR-FRET): stabilization of p53 Y220C and increase of its DNA binding activity
Format: biochemical
Conditions: recombinant His-tagged p53 Y220C DNA binding domain (aa 94-312), biotin-labeled consensus DNA, incubated at 27° C. or 29° C. for 60 min
Method: The ability of a compound of the invention to stabilize p53 Y220C and increase the DNA binding activity of p53 Y220C was measured by a homogeneous time-resolved fluorescence (HTRF) assay. Recombinant His-tagged p53 Y220C used in the HTRF assay was expressed in the bacterium E. coli.
The binding of the recombinant His-tagged p53 Y220C protein and the biotin-labeled consensus DNA was measured using fluorescence resonance energy transfer (FRET). For the FRET assay, the binding between the p53 mutant and the DNA sequence was measured by detecting the fluorescence of the interaction between an anti-His antibody conjugated to allophycocyanin (APC) and streptavidin conjugated to europium to detect the biotin-labeled DNA.
The test compounds were prepared as 4.5 mM stock solutions in dimethyl sulfoxide (DMSO). The compounds of the disclosure were used to test the stabilization of p53 Y220C and increase in DNA binding activity of p53 Y220C. The stock solutions were then serially diluted 3-fold in DMSO, and 1.2 μL of the diluted solutions was added to each well of a 384-well polypropylene black plate.
The test and control samples were spun at 1200 rpm for 1 minute and incubated at room temperature for 15 minutes. […] The plates were spun at 1200 rpm for 1 minute and incubated at room temperature for 20 minutes. The assay signals were monitored by reading excitation at 340 nm, and emission fluorescence at 615 nm and 665 nm on a plate reader.
The percentage of activation of protein DNA binding in the presence of a compound of the invention compared to the absence of the compound was denoted by a SC150 value, which indicated the concentration of the compound required to increase the DNA binding activity by 50%. The SC150 values were calculated using either Prism™ or ActivityBase™.

T1 sequence (P04637 94-312, change not shown): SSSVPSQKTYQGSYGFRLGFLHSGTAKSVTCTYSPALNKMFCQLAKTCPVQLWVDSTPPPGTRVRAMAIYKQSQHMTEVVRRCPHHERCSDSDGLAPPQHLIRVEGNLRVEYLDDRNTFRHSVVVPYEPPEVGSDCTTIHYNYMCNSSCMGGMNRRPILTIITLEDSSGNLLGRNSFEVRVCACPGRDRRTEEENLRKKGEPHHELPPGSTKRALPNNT

SC150 (concentration of the compound required to increase the DNA binding activity by 50%), + (+ = 0 μM ≤ SC150 < 0.05 μM):
COc1cc(S(C)(=O)=O)ccc1NCC#Cc1cc2c(N[C@H]3CCC[C@@H](N)C3)cccc2n1CC(F)(F)F (racemic) [Compound 27A, rac-(1R,3S)-N^1-(2-{3-[(4-methanesulfonyl-2-methoxyphenyl)amino]prop-1-yn-1-yl}-1-(2,2,2-trifluoroethyl)-1H-indol-4-yl)cyclohexane-1,3-diamine]
COc1cc(S(C)(=O)=O)ccc1NCC#Cc1cc2c(N[C@H]3CCCC[C@H]3N)cccc2n1CC(F)(F)F (racemic) [Compound 29A, rac-(1R,2S)-N^1-(2-{3-[(4-methanesulfonyl-2-methoxyphenyl)amino]prop-1-yn-1-yl}-1-(2,2,2-trifluoroethyl)-1H-indol-4-yl)cyclo-hexane-1,2-diamine]
CCC(=O)OC(C)CN1CCC(Nc2cccc3c2cc(C#CCNc2ccc(S(C)(=O)=O)cc2OC)n3CC(F)(F)F)CC1 (racemic) [Compound 590A, 1-{4-[(2-{3-[(4-methanesulfonyl-2-methoxyphenyl)amino]prop-1-yn-1-yl}-1-(2,2,2-trifluoroethyl)-1H-indol-4-yl)amino]piperidin-1-yl}propan-2-yl propanoate]
COc1cc(S(C)(=O)=O)ccc1NCC#Cc1cc2c(NC3CCN(CC(C)OC(=O)C(C)C)CC3)cccc2n1CC(F)(F)F (racemic) [Compound 591A, 1-{4-[(2-{3-[(4-methanesulfonyl-2-methoxyphenyl)amino]prop-1-yn-1-yl}-1-(2,2,2-trifluoroethyl)-1H-indol-4-yl)amino]piperidin-1-yl}propan-2-yl 2-methylpropanoate]
COCC(O)CN1CC[C@H](Nc2cccc3c2cc(C#CCNc2ccc(S(C)(=O)=O)cc2OC)n3CC(F)(F)F)[C@H](C)C1 (mixture of isomers) [Compound 701A, rac-1-[(3R,4R)-4-[(2-{3-[(4-methanesulfonyl-2-methoxyphenyl)amino]prop-1-yn-1-yl}-1-(2,2,2-trifluoroethyl)-1H-indol-4-yl)amino]-3-methylpiperidin-1-yl]-3-methoxypropan-2-ol]
COCC(O)CN1CC[C@H](Nc2cccc3c2cc(C#CCNc2ccc(S(C)(=O)=O)cc2OC)n3CC(F)(F)F)[C@@H](C)C1 (mixture of isomers) [Compound 702A, rac-1-[(3R,4S)-4-[(2-{3-[(4-methanesulfonyl-2-methoxyphenyl)amino]prop-1-yn-1-yl}-1-(2,2,2-trifluoroethyl)-1H-indol-4-yl)amino]-3-methylpiperidin-1-yl]-3-methoxypropan-2-ol]
COc1cc(S(C)(=O)=O)ccc1NCC#Cc1cc2c(N[C@H]3CN(C)CC[C@H]3O)cccc2n1CC(F)(F)F (racemic) [Compound 766A, rac-(3R,4S)-3-[(2-{3-[(4-methanesulfonyl-2-methoxyphenyl)amino]prop-1-yn-1-yl}-1-(2,2,2-trifluoroethyl)-1H-indol-4-yl)amino]-1-methylpiperidin-4-ol]
COc1cc(S(C)(=O)=O)ccc1NCC#Cc1cc2c(N[C@H]3CCN(C)C[C@@H]3O)cccc2n1CC(F)(F)F (racemic) [Compound 767A, rac-(3R,4R)-4-[(2-{3-[(4-methanesulfonyl-2-methoxyphenyl)amino]prop-1-yn-1-yl}-1-(2,2,2-trifluoroethyl)-1H-indol-4-yl)amino]-1-methylpiperidin-3-ol]
COc1cc(S(C)(=O)=O)ccc1NCC#Cc1cc2c(N[C@@H]3CCN(C)C[C@H]3F)cccc2n1CC(F)(F)F (racemic) [Compound 769A, (rac)-N-((3R,4R)-3-fluoro-1-methylpiperidin-4-yl)-2-(3-((2-methoxy-4-(methylsulfonyl)phenyl)amino)prop-1-yn-1-yl)-1-(2,2,2-trifluoroethyl)-1H-indol-4-amine]
COC(=O)c1ccc(NCC#Cc2cc3c(N[C@H]4CCN(C)C[C@@H]4F)cccc3n2CC(F)(F)F)c(OC)c1 (racemic) [Compound 777A, rac-Methyl 4-{[3-(4-{[(3R,4R)-3-fluoro-1-methylpiperidin-4-yl]amino}-1-(2,2,2-trifluoroethyl)-1H-indol-2-yl)prop-2-yn-1-yl]amino}-3-methoxybenzoate]
COC(=O)c1ccc(NCC#Cc2cc3c(N[C@H]4CCN(C)C[C@H]4F)cccc3n2CC(F)(F)F)c(OC)c1 (racemic) [Compound 778A, rac-methyl 4-{[3-(4-{[(3R,4S)-3-fluoro-1-methylpiperidin-4-yl]amino}-1-(2,2,2-trifluoroethyl)-1H-indol-2-yl)prop-2-yn-1-yl]amino}-3-methoxybenzoate]
COc1cc(C(=O)O)ccc1NCC#Cc1cc2c(N[C@H]3CCN(C)C[C@H]3F)cccc2n1CC(F)(F)F (racemic) [Compound 779A, rac-4-{[3-(4-{[(3R,4S)-3-fluoro-1-methylpiperidin-4-yl]amino}-1-(2,2,2-trifluoroethyl)-1H-indol-2-yl)prop-2-yn-1-yl]amino}-3-methoxybenzoic acid]
COc1cc(C(N)=O)ccc1NCC#Cc1cc2c(N[C@H]3CCN(C)C[C@H]3F)cccc2n1CC(F)(F)F (racemic) [Compound 782A, rac-4-{[3-(4-{[(3R,4S)-3-fluoro-1-methylpiperidin-4-yl]amino}-1-(2,2,2-trifluoroethyl)-1H-indol-2-yl)prop-2-yn-1-yl]amino}-3-methoxybenzamide]
CNC(=O)c1ccc(NCC#Cc2cc3c(N[C@H]4CCN(C)C[C@H]4F)cccc3n2CC(F)(F)F)c(OC)c1 (racemic) [Compound 783A, 4-[3-[4-[[(3R,4S)-3-fluoro-1-methyl-4-piperidyl]amino]-1-(2,2,2-trifluoroethyl)indol-2-yl]prop-2-ynylamino]-3-methoxy-N-methyl-benzamide]
CNC(=O)c1ccc(NCC#Cc2cc3c(N[C@H]4CCN(C)C[C@@H]4F)cccc3n2CC(F)(F)F)c(OC)c1 (racemic) [Compound 785A, rac-4-{[3-(4-{[(3R,4R)-3-fluoro-1-methylpiperidin-4-yl]amino}-1-(2,2,2-trifluoroethyl)-1H-indol-2-yl)prop-2-yn-1-yl]amino}-3-methoxy-N-methylbenzamide]
COc1cc(S(C)(=O)=O)ccc1NCC#Cc1cc2c(N[C@H]3CCN(C(C)C)C[C@H]3F)cccc2n1CC(F)(F)F (racemic) [Compound 795A, (rac)-N-[(3R,4S)-3-fluoro-1-(propan-2-yl)piperidin-4-yl]-2-{3-[(4-methanesulfonyl-2-methoxyphenyl)amino]prop-1-yn-1-yl}-1-(2,2,2-trifluoroethyl)-1H-indol-4-amine]
COc1cc(C(=O)O)ccc1NCC#Cc1cc2c(N[C@H]3CCN(C(C)C)C[C@H]3F)cccc2n1CC(F)(F)F (racemic) [Compound 796A, 4-((3-(4-(((3R,4S)-3-fluoro-1-isopropylpiperidin-4-yl)amino)-1-(2,2,2-trifluoroethyl)-1H-indol-2-yl)prop-2-yn-1-yl)amino)-3-methoxybenzoic acid]
CCOC(=O)c1ccc(NCC#Cc2cc3c(N[C@H]4CCN(C(C)C)C[C@H]4F)cccc3n2CC(F)(F)F)c(OC)c1 (racemic) [Compound 797A, ethyl 4-((3-(4-(((3R,4S)-3-fluoro-1-isopropylpiperidin-4-yl)amino)-1-(2,2,2-trifluoroethyl)-1H-indol-2-yl)prop-2-yn-1-yl)amino)-3-methoxybenzoate]
CCOC(=O)c1ccc(NCC#Cc2cc3c(N[C@H]4CCN(C)C[C@H]4F)cccc3n2CC(F)(F)F)c(OC)c1 (racemic) [Compound 798A, rac-ethyl 4-{[3-(4-{[(3R,4S)-3-fluoro-1-methylpiperidin-4-yl]amino}-1-(2,2,2-trifluoroethyl)-1H-indol-2-yl)prop-2-yn-1-yl]amino}-3-methoxybenzoate]
